Measured values as given in patent US20230218577A1, “USE OF HEAT SHOCK PROTEIN INHIBITORS FOR THE TREATMENT OF NEURODEVELOPMENTAL DISORDERS” (The Children's Medical Center Corporation, priority 2020, published 2023).

Assays:
[1] = system: pS6, IGF-IRβ in ctrl-sh neurons; experiment: Western blot of pS6 and IGF-IRβ in ctrl-sh neurons; assay type: cell-based, rat; conditions: dose curve
[2] = system: ciliated neurons in CA1 of the hippocampus of Tsc2 mutant mice; experiment: Ciliated neurons in brain of Tsc2 mutant mice (immunohistochemistry, manual cilia counting); assay type: in vivo, mouse; conditions: rapamycin 3 mg/kg i.p. every other day P7 until P56
Source text: (§1) Neuronal cilia in TSC mouse models was examined with either a conditional deletion of TSC1 or TSC2 driven by the Synapsin-1 promoter, which results in loss of TSC1/2 proteins in post-mitotic neurons of the cortex and of the hippocampus. The TSC1/SynCre mice (Tsc1 mutant) have a shorter life span (median age postnatal day 35, P35), and they recapitulate many of the neurological manifestations of TSC, including seizures and presence of ectopic giant cells (Meikle et al., A mouse model of tuberous sclerosis: neuronal loss of Tsc1 causes dysplastic and ectopic neurons, reduced myelination, seizure activity, and limited survival; J Neurosci 27, 5546-5558 (2007)). […]
For histological analysis, animals were anesthetized (1 ml of 2.5% Avertin) and perfused transcardially with 4% PFA. […] Finally, the average percentage of neurons with cilia (NeuN^+/ACIII^+) was calculated in each of the images. […] The average percentage of SMI311^+ or SMI311^− with cilia was calculated. […] A threshold for cilia count was set such that only ACIII positive objects that measured longer than 1 μm were counted as cilia. All the imaging and the quantification were done in a blinded way. […] All quantifications were performed in a blinded fashion.

[3] = system: ciliated neurons in cortex and dentate gyrus of Tsc1 mutant mice; experiment: Ciliated neurons in brain of Tsc1 mutant mice (immunohistochemistry, manual cilia counting); assay type: in vivo, mouse; conditions: rapamycin 6 mg/kg i.p. every other day P7 until P21
Source text: as §1
For histological analysis, animals were anesthetized (1 ml of 2.5% Avertin) and perfused transcardially with 4% PFA. […] Finally, the average percentage of neurons with cilia (NeuN^+/ACIII^+) was calculated in each of the images. […] The average percentage of SMI311^+ or SMI311^− with cilia was calculated. […] A threshold for cilia count was set such that only ACIII positive objects that measured longer than 1 μm were counted as cilia. All the imaging and the quantification were done in a blinded way. […]

Row | Compound | IGF-IRβ levels [1] | S6 phosphorylation [1] | ciliation defects [2] | ciliation defects [3]
1 | C=CCNC1=C2C[C@@H](C)C[C@H](OC)[C@H](O)[C@@H](C)/C=C(\C)[C@H](OC(N)=O)[C@@H](OC)C=C/C=C(\C)C(=O)NC(=CC1=O)C2=O [17-AGG, 3 S,5S,6R,7S,8E,10R,11S,12E,14E)-21-(allylamino)-6-hydroxy-5,11-dimethoxy-3,7,9,15-tetramethyl-16,20,22-trioxo-17-azabicyclo[16.3.1]docosa-8,12,14,18,21-pentaen-10-yl] carbamate] | reduced | reduced |  | 
2 | CO[C@H]1C[C@@H]2CC[C@@H](C)[C@@](O)(O2)C(=O)C(=O)N2CCCC[C@H]2C(=O)O[C@H]([C@H](C)C[C@@H]2CC[C@@H](O)[C@H](OC)C2)CC(=O)[C@H](C)/C=C(\C)[C@@H](O)[C@@H](OC)C(=O)[C@H](C)C[C@H](C)/C=C/C=C/C=C/1C [rapamycin] |  |  | prevented | prevented
